Data published in patent publication US20260217677A1, “ORGANIC COMPOUNDS AS NLRP3 INHIBITORS” (KODIAK SCIENCES, INC., priority 2023, published 2026).

Test system: IL-1β release in U937 cells after NLRP3 activation
Experiment: IL-1β release inhibition in U937 cells (MSD V-Plex)
Details: Homo sapiens, U-937, read-out: IL-1β IC50, Table 3; PMA-differentiated U937 cells, 1 μg/mL LPS 3 h, compound 30 min, 10 mM nigericin 1 h

Row | IC50 | SMILES
1 | 5 to 50 nM | Cc1cc(N[C@@H]2CCCN(C3CCN(C4CC(O)C4)CC3)C2)nnc1-c1ccc(C(F)(F)F)cc1O (single isomer, unassigned) [Example 38A]
2 | 5 to 50 nM | Cc1cc(-c2ccc(C(F)(F)F)cc2O)nnc1N[C@@H]1CCCN(CC(=O)N2CC[C@@H](O)C2)C1 [Example 32, 2-((R)-3-((6-(2-Hydroxy-4-(trifluoromethyl)phenyl)-4-methylpyridazin-3-yl)amino)piperidin-1-yl)-1-((R)-3-hydroxypyrrolidin-1-yl)ethan-1-one]
3 | < 5 nM | Cc1cc(N[C@@H]2CCCN(CC(=O)N3CCC(C)(O)CC3)C2)nnc1-c1ccc(C(F)(F)F)cc1O [Example 55, (R)-2-(3-((6-(2-Hydroxy-4-(trifluoromethyl)phenyl)-5-methylpyridazin-3-yl)amino)piperidin-1-yl)-1-(4-hydroxy-4-methylpiperidin-1-yl)ethan-1-one]
4 | 5 to 50 nM | O=C(CN1CCC[C@@H](Nc2nnc(-c3ccc(C(F)(F)F)cc3O)c3c2COC3)C1)N1CC[C@@H](O)C1 [Example 27, 2-((R)-3-((4-(2-hydroxy-4-(trifluoromethyl)phenyl)-5,7-dihydrofuro[3,4-d]pyridazin-1-yl)amino)piperidin-1-yl)-1-((R)-3-hydroxypyrrolidin-1-yl) ethan-1-one]
5 | 5 to 50 nM | Cc1cc(N[C@@H]2CCCN(C3CCN(C4CCC(O)CC4)CC3)C2)nnc1-c1ccc(C(F)(F)F)cc1O (single isomer, unassigned) [Example 39A]
6 | 50 to 500 nM | Cc1cc(N[C@@H]2CCCN(CC(C)(C)C(=O)N3CCC(O)CC3)C2)nnc1-c1ccc(C(F)(F)F)cc1O [Example 47, 3-[(3R)-3-({6-[2-Hydroxy-4-(trifluoromethyl)phenyl]-5-methylpyridazin-3-yl}amino)piperidin-1-yl]-1-(4-hydroxypiperidin-1-yl)-2,2-dimethylpropan-1-one]
7 | 50 to 500 nM | Oc1cc(C(F)(F)F)ccc1-c1nnc(N[C@@H]2CCCN(CCN3CCC(O)CC3)C2)c2c1CCC2 [Compound 19, 1-{2-[(3R)-3-({4-[2-Hydroxy-4-(trifluoromethyl)phenyl]-5H,6H,7H-cyclopenta[d]pyridazin-1-yl}amino)piperidin-1-yl]ethyl}piperidin-4-ol]
8 | < 5 nM | Cc1cc(N[C@@H]2CCCN(CCC3CC(O)C3)C2)nnc1-c1ccc(C(F)(F)F)cc1O (stereo partly drawn) [Example 66, (R)-2-(6-((1-(2-(3-Hydroxycyclobutyl)ethyl)piperidin-3-yl)amino)-4-methylpyridazin-3-yl)-5-(trifluoromethyl)phenol]
9 | 5 to 50 nM | Cc1cc(N[C@@H]2CCCN(C(=O)C3CCCC(O)C3)C2)nnc1-c1ccc(C(F)(F)F)cc1O (single isomer, unassigned) [Example 70 Fraction A]
10 | < 5 nM | Cc1cc(N[C@@H]2CCCN(CC(=O)N3CC[C@@H](O)C3)C2)nnc1-c1ccc(C(F)(F)F)cc1O [Compound 12, 2-((R)-3-((6-(2-Hydroxy-4-(trifluoromethyl)phenyl)-5-methylpyridazin-3-yl)amino)piperidin-1-yl)-1-((R)-3-hydroxypyrrolidin-1-yl)ethan-1-one]
11 | < 5 nM | Cc1cc(N[C@@H]2CCCN(C[C@H]3C[C@@H](O)C3)C2)nnc1-c1ccc2sccc2c1O [Example 51, 5-(6-(((R)-1-(((1s,3S)-3-Hydroxycyclobutyl)methyl)piperidin-3-yl)amino)-4-methylpyridazin-3-yl)benzo[b]thiophen-4-ol]
12 | 5 to 50 nM | O=C(CN1CCC[C@@H](Nc2nnc(-c3ccc(C(F)(F)F)cc3O)c3c2COC3)C1)N1CC2(CCC(O)CC2)C1 [Compound 25, (R)-2-(3-((4-(2-Hydroxy-4-(trifluoromethyl)phenyl)-5,7-dihydrofuro[3,4-d]pyridazin-1-yl)amino)piperidin-1-yl)-1-(7-hydroxy-2-azaspiro[3.5]nonan-2-yl)ethan-1-one]
13 | < 5 nM | Cc1cc(N[C@@H]2CCCN(CC(=O)N3CC[C@H](O)C3)C2)nnc1-c1ccc(C(F)(F)F)cc1O [Compound 11, 2-((R)-3-((6-(2-Hydroxy-4-(trifluoromethyl)phenyl)-5-methylpyridazin-3-yl)amino)piperidin-1-yl)-1-((S)-3-hydroxypyrrolidin-1-yl)ethan-1-one]
14 | 5 to 50 nM | Cc1cc(N[C@@H]2CCCN(C3CCN(C(=O)N4CCC(O)CC4)CC3)C2)nnc1-c1ccc(C(F)(F)F)cc1O [Example 41, (R)-(3-((6-(2-Hydroxy-4-(trifluoromethyl)phenyl)-5-methylpyridazin-3-yl)amino)-[1,4′-bipiperidin]-1′-yl) (4-hydroxypiperidin-1-yl)methanone]
15 | 5 to 50 nM | Oc1cc(C(F)(F)F)ccc1-c1nnc(N[C@@H]2CCCN(CCN3CC[C@H](O)C3)C2)c2c1COC2 [Example 35, (S)-1-(2-((R)-3-((4-(2-Hydroxy-4-(trifluoromethyl)phenyl)-5,7-dihydrofuro[3,4-d]pyridazin-1-yl)amino)piperidin-1-yl)ethyl)pyrrolidin-3-ol]
16 | 5 to 50 nM | Cc1c(N[C@@H]2CCCN(CC34CC(O)(C3)C4)C2)nnc(-c2ccc(C(F)(F)F)cc2O)c1C [Example 68, (R)-3-((3-((6-(2-Hydroxy-4-(trifluoromethyl)phenyl)-4,5-dimethylpyridazin-3-yl)amino)piperidin-1-yl)methyl) bicyclo[1.1.1]pentan-1-ol]
17 | < 5 nM | Cc1cc(N[C@@H]2CCCN(CC3CC(O)C3)C2)nnc1-c1ccc2sccc2c1O (stereo partly drawn) [Example 52, 5-(6-(((R)-1-(((1r,3R)-3-Hydroxycyclobutyl)methyl)piperidin-3-yl)amino)-4-methylpyridazin-3-yl)benzo[b]thiophen-4-ol]
18 | 5 to 50 nM | Cc1cc(N[C@@H]2CCCN(CC(=O)NC3CC(O)C3)C2)nnc1-c1ccc(C(F)(F)F)cc1O (stereo partly drawn) [Compound 10, 2-((R)-3-((6-(2-Hydroxy-4-(trifluoromethyl)phenyl)-5-methylpyridazin-3-yl)amino)piperidin-1-yl)-N-((1r,3R)-3-hydroxycyclobutyl)acetamide]
19 | < 5 nM | Cc1c(N[C@@H]2CCCN(CC(=O)N3CCC(O)CC3)C2)nnc(-c2ccc3sccc3c2O)c1C [Example 50, (R)-2-(3-((6-(4-Hydroxybenzo[b]thiophen-5-yl)-4,5-dimethylpyridazin-3-yl)amino)piperidin-1-yl)-1-(4-hydroxypiperidin-1-yl)ethan-1-one]
20 | < 5 nM | O=C(CN1CCC[C@@H](Nc2nnc(-c3ccc(C(F)(F)F)cc3O)c3c2COC3)C1)N1CCC(O)CC1 [Compound 23, (R)-2-(3-((4-(2-Hydroxy-4-(trifluoromethyl)phenyl)-5,7-dihydrofuro[3,4-d]pyridazin-1-yl)amino)piperidin-1-yl)-1-(4-hydroxypiperidin-1-yl)ethan-1-one]
21 | 50 to 500 nM | O=C(CN1CCC[C@@H](Nc2nnc(-c3ccc(F)cc3O)c3c2CCC3)C1)N1CCC(O)CC1 [Compound 20, 2-[(3R)-3-{[4-(4-Fluoro-2-hydroxyphenyl)-5H,6H,7H-cyclopenta[d]pyridazin-1-yl]amino}piperidin-1-yl]-1-(4-hydroxypiperidin-1-yl) ethenone]

Same assay, conditions: Homo sapiens, U-937, read-out: IL-1β IC50, Table 4; PMA-differentiated U937 cells, 1 μg/mL LPS 3 h, compound 30 min, 10 mM nigericin 1 h

Row | IC50 | SMILES
22 | 50 to 500 nM | Cc1cc(N[C@@H]2CCCN(CC(=O)N3CCC(N)CC3)C2)nnc1-c1ccc(C(F)(F)F)cc1O [Example 83, (R)-1-(4-Aminopiperidin-1-yl)-2-(3-((6-(2-hydroxy-4-(trifluoromethyl)phenyl)-5-methylpyridazin-3-yl)amino)piperidin-1-yl)ethan-1-one]
23 | 5 to 50 nM | Cc1cc(N[C@@H]2CCCN(CC(=O)N3CCN[C@H](C)C3)C2)nnc1-c1ccc(C(F)(F)F)cc1O [Example 110, 2-((R)-3-((6-(2-Hydroxy-4-(trifluoromethyl)phenyl)-5-methylpyridazin-3-yl)amino)piperidin-1-yl)-1-((R)-3-methylpiperazin-1-yl)ethan-1-one]
24 | 5 to 50 nM | Cc1cc(N[C@@H]2CCCN(C[C@@H]3CCCN3)C2)nnc1-c1ccc(C(F)(F)F)cc1O [Example 106, 2-(4-Methyl-6-(((R)-1-(((S)-pyrrolidin-2-yl)methyl)piperidin-3-yl)amino)pyridazin-3-yl)-5-(trifluoromethyl)phenol]
25 | 50 to 500 nM | Cc1cc(N[C@@H]2CCCN(CC(=O)N3CCC4(CCNCC4)CC3)C2)nnc1-c1ccc(C(F)(F)F)cc1O [Example 93, (R)-2-(3-((6-(2-Hydroxy-4-(trifluoromethyl)phenyl)-5-methylpyridazin-3-yl)amino)piperidin-1-yl)-1-(3,9-diazaspiro[5.5]undecan-3-yl)ethan-1-one]
26 | 5 to 50 nM | NC1CC2(CCN(C(=O)CN3CCC[C@@H](Nc4nnc(-c5ccc(C(F)(F)F)cc5O)c5c4COC5)C3)CC2)C1 [Example 101, (R)-1-(2-Amino-7-azaspiro[3.5]nonan-7-yl)-2-(3-((4-(2-hydroxy-4-(trifluoromethyl)phenyl)-5,7-dihydrofuro[3,4-d]pyridazin-1-yl)amino)piperidin-1-yl)ethan-1-one]
27 | 50 to 500 nM | Cc1cc(N[C@@H]2CCCN(CC(=O)N(C)CCN)C2)nnc1-c1ccc(C(F)(F)F)cc1O [Example 79, (R)—N-(2-Aminoethyl)-2-(3-((6-(2-hydroxy-4-(trifluoromethyl)phenyl)-5-methylpyridazin-3-yl)amino)piperidin-1-yl)-N-methylacetamide]
28 | < 5 nM | Cc1cc(N[C@@H]2CCCN(C3CNC3)C2)nnc1-c1ccc2sccc2c1O [Example 114, (R)-5-(6-((1-(azetidin-3-yl)piperidin-3-yl)amino)-4-methylpyridazin-3-yl)benzo[b]thiophen-4-ol]
29 | 5 to 50 nM | Cc1cc(N[C@@H]2CCCN(CC(=O)N3CC(N)C3)C2)nnc1-c1ccc(C(F)(F)F)cc1O [Example 77, (R)-1-(3-Aminoazetidin-1-yl)-2-(3-((6-(2-hydroxy-4-(trifluoromethyl)phenyl)-5-methylpyridazin-3-yl)amino)piperidin-1-yl)ethan-1-one]
30 | 5 to 50 nM | Cc1cc(N[C@@H]2CCCN(C(=O)C(F)(F)CN)C2)nnc1-c1ccc(C(F)(F)F)cc1O [Example 96, (R)-3-Amino-2,2-difluoro-1-(3-((6-(2-hydroxy-4-(trifluoromethyl)phenyl)-5-methylpyridazin-3-yl)amino)piperidin-1-yl) propan-1-one]
